Reference: patent publication US7101878B1 (Agouron Pharmaceuticals, Inc., priority 1998, dated 2006)
Read-outs that look alike come from different tables or passages of the source.

Columns and labels:
[1] = Pharmacokinetic studies / bioavailability in rats; assay type: in vivo, rat; details: for Cmax / Tmax / half-life: rat, plasma; for Cmax / Tmax: po, p.o. 10 mg/kg; for Cmax / Tmax / Fp.o.: 5 mg/ml solution in 10% DMSO 10% cremophor 80% saline
rat GnRH receptor = biological target: T1, rat GnRH receptor (Rattus norvegicus, UniProt P30969); assay: Radioligand binding, 125I-GnRH-A, rat pituitary membranes; design: membranes were prepared from rat pituitary; from tissue; host or cells: rat pituitary; details: read-out: rGnRH IC50
T1 sequence (P30969 1-327): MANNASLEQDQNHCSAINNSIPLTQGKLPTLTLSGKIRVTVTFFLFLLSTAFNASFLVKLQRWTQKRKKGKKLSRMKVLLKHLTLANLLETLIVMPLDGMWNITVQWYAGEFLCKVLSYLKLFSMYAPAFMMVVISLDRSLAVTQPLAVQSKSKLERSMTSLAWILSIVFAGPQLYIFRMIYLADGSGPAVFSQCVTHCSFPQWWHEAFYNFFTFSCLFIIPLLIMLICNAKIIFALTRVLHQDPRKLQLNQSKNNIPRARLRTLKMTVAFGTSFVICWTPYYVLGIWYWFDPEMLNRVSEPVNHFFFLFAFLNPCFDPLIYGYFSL
In short: (§1)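 Bound label captured on 0.1% polyethyleneimine-treated GF/C filters, washed three times with PBS, counted. IC50 derived; identical set-up for every species.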

mouse GnRH receptor = biological target: T2, mouse GnRH receptor (Mus musculus, UniProt Q01776); assay: Radioligand binding, 125I-GnRH-A, 293 cells expressing mouse GnRH receptors; details: read-out: mGnRH IC50
T2 construct: expressed in transfected cells; host or cells: 293 cells
T2 sequence (Q01776 1-327): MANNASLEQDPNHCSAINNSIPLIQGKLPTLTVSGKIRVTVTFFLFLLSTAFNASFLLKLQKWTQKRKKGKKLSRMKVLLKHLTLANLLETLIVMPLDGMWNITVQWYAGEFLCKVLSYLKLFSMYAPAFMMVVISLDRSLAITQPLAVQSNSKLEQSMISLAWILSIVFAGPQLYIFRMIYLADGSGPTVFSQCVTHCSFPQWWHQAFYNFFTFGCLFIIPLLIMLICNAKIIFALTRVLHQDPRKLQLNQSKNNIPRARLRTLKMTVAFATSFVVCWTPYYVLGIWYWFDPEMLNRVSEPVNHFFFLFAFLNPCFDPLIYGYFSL
In short: as §1

[2] = Metabolism rate, pmol/min/mg at 1 μM, rat male; assay type: in vitro ADME; details: 1 μM compound
[3] = Metabolism rate, pmol/min/mg at 1 μM, rat female; assay type: in vitro ADME; details: 1 μM compound
[4] = Metabolism rate, pmol/min/mg at 1 μM, human; assay type: in vitro ADME; details: 1 μM compound
human GnRH receptor = biological target: T3, human GnRH receptor (Homo sapiens, UniProt P30968); assay: Radioligand binding, 125I-GnRH-A displacement, membranes of HEK 293 cells with human GnRH receptor
T3 construct: expressed in transfected cells; host or cells: HEK 293 (hGnRH-R/293, from Dr. Stuart Sealfon)
T3 sequence (P30968 1-328): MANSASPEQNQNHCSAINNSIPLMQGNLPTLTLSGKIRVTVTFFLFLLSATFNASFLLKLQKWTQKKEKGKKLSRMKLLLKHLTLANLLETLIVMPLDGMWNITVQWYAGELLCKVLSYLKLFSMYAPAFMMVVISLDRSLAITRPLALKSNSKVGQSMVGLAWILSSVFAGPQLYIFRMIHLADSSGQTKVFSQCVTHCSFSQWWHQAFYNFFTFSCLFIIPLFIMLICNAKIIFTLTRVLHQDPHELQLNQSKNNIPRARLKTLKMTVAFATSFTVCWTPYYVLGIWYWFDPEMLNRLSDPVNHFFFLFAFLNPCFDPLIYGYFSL
In short: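 Bound tracer was separated by filtration through polyethyleneimine-soaked GF/C filters and counted by liquid scintillation. IC50 from curve fitting; other species were tested under the same conditions.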

bovine GnRH receptor = biological target: T4, bovine GnRH receptor (Bos taurus, UniProt P32236); assay: Radioligand binding, 125I-GnRH-A, bovine pituitary membranes; details: read-out: bGnRH IC50
T4 construct: membranes were prepared from bovine pituitary; from tissue; host or cells: bovine pituitary
T4 sequence (P32236 1-328): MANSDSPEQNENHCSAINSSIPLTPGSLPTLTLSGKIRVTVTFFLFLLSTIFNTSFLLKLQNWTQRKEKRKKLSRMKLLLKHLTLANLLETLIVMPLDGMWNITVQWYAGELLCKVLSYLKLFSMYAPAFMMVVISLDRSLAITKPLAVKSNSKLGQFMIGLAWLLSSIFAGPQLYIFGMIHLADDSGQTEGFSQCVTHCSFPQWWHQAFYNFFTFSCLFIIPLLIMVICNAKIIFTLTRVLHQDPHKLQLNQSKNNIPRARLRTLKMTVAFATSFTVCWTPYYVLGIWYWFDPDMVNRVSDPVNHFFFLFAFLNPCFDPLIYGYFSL
Procedure: All compounds were diluted in 1% DMSO (final assay concentration) in binding assay buffer. […] Reactions were terminated by rapid filtration onto 96-well Packard GF/C filters soaked in 0.1% polyethyleneimine. Filters were washed three times with PBS buffer, dried and counted on a Packard Topcount by liquid scintillation counting.
Assay conditions were identical for assessing compound activities at other species. […] IC50 values for control peptides and test compounds were calculated utilizing GraphPad Prism™ software.
The reaction mixture was vortexed and incubated for 1 min at room temperature. After one min, the mixture was vortexed and allowed to incubate for an additional minute. 2 ml of 0.5 M acetic acid/1% BSA was added to the reaction tube and the mixture was added to a C18 Sep-Pak cartridge. The cartridge was washed with subsequent washes of 5 ml H2O and 5 ml 0.5M acetic acid and then eluted with 5×1 ml of 60% CH3CN/40% 0.5M acetic acid. The eluate was diluted with 3× volume of HPLC buffer A (0.1% TFA in H2O) and loaded onto a C18 column. […] The radioactive fractions (750 ed/fraction) are collected into clean polypropylene tubes containing 100 μl of 10% BSA. Fractions were assessed for biological activity by radioligand binding.

Cmax ([1]; female, 10 mg/kg, rat female) [nM]	Tmax ([1]; female, 10 mg/kg, rat female) [h]	half-life ([1]; female, rat female) [h]	Fp.o. ([1]; rat female)	IC50 (rat GnRH receptor) [nM]	IC50 (mouse GnRH receptor) [nM]	Rat male pmol/min/mg 1 μM [2] [pmol/min/mg]	Rat female pmol/min/mg 1 μM [3] [pmol/min/mg]	Human pmol/min/mg 1 μM [4] [pmol/min/mg]	IC50 (human GnRH receptor; read-out: hGnRH IC50) [nM]	half-life ([1]; male, iv, 10 mg/kg, rat male) [h]	IC50 (bovine GnRH receptor) [nM]	IC50 (human GnRH receptor; second value marked * (mostly in parentheses), asterisk not explained, read-out: hGnRH IC50, value marked *) [nM]	SMILES
80	4	1.5	10% (10 mg/kg)^10	9.6	15	3387	181	181	92				COc1cc2c(cc1Cc1ccc(C(=O)NCc3cccc(CNc4ccnc(NC[C@H]5CCCO5)n4)c3)o1)C(C)(C)CCC2(C)C (stereo in doubt) [Compound 199]
				130	240	2198		392	230	1.5	1920	80	Cc1cc2c(cc1Cc1ccc(C(=O)NCCOc3ccccc3)o1)C(C)(C)CCC2(C)C [Compound 47]
				70	220	3412		392	100	2.6	1000		COc1ccc(CNC(=O)c2ccc(Cc3cc4c(cc3C)C(C)(C)CCC4(C)C)o2)c(OC)c1 [Compound 56]
230	1	7.9	1% (10 mg/kg)^10	400	360		182	594	200				Cc1cc2c(cc1Cc1ccc(C(=O)NCc3ccc(CNc4ncccn4)cc3)o1)C(C)(C)CCC2(C)C [Compound 137]
				35	14	5978	205	750	18				CCOc1cccc(OCC)c1NC(=O)c1ccc(Cc2cc3c(cc2C)C(C)(C)CCC3(C)C)o1 [Compound 194]
2810	1	1.6	41% (10 mg/kg)^10			1236	159	157	200				Cc1ccc(C(C)(C)C)cc1Cc1ccc(C(=O)Nc2ccc3[nH]ccc3c2)o1 [Compound 207]
50	1	1.6	1% (10 mg/kg)^10	12	62	3282	430	322	80				Cc1ccc(C(C)(C)C)cc1Cc1ccc(C(=O)NCc2cccc(CNc3ccnc(NC[C@H]4CCCO4)n3)c2)o1 [Compound 212]
100	1	3.8	16% (10 mg/kg)^10	21	11	953	203	483	29				COc1cc2c(cc1Cc1ccc(C(=O)Nc3c(OC)cc(OC)c(C#N)c3OC)o1)C(C)(C)CCC2(C)C [Compound 217]
340	1	3	41% (10 mg/kg)^10	11	9.2	528	223	116	15				COc1cc(OC)c(NC(=O)c2ccc(Cc3cc4c(cc3C)OCCC4(C)C)o2)c(OC)c1 [Compound 221]
810	1.5	3.2	54% (10 mg/kg)^10	78	65	575	167	115	110				COc1cc(OC)c(NC(=O)c2ccc(Cc3c(C)ccc4c3OCCC4(C)C)o2)c(OC)c1 [Compound 222]
340	1	1.1	24% (10 mg/kg)^10	1510	850	2180	330	450	174				COc1cccc(OC)c1NC(=O)c1ccc(Cc2c(C)c(C)cc(C)c2C)o1 [Compound 225]
420	1 to 5	4.6	34% (10 mg/kg)^10	2130	720	990	173	369	240				COc1cccc(OC)c1NC(=O)c1ccc(Cc2c(C)c(C)c(Br)c(C)c2C)o1 [Compound 226]
70	0.5	2.4	2% (10 mg/kg)^10	57	14	320	227	641	27				COc1cc(NS(C)(=O)=O)c(NC(=O)c2ccc(Cc3cc4c(cc3C)C(C)(C)CCC4(C)C)o2)c(OC)c1 [Compound 228]
340	1	1.4	34% (10 mg/kg)^10	51	68	2988	338	773	60				COc1cc(C)c(Cl)c(C)c1Cc1ccc(C(=O)Nc2c(OC)cccc2OC)o1 [Compound 233]
